Earlier results in patent US20040242698A1, “Analeptic and antidepressant combinations” (Cephalon Inc., priority 2003, published 2004).

How the values were obtained:
non-human primates = settings: Hernant et al, 1991
rats = settings: Touret et al., 1995, Edgar and Seidel, 1997
[1] = tested on: English bulldog sleep disordered breathing model; settings: sleep apnea model; Panckeri et al, 1996
narcoleptic canine = settings: narcolepsy model; Shelton et al, 1995
canines = settings: Shelton et al., 1995
cats = settings: Lin et al., 1992
[2] = tested on: major depressive disorder; settings: at 6 weeks

Structure (SMILES) | wakefulness (non-human primates) | wakefulness (rats) | wakefulness [1] | wakefulness (narcoleptic canine) | wakefulness (canines) | wakefulness (cats) | response [2]
NC(=O)C[S+]([O-])C(c1ccccc1)c1ccccc1 (stereo not shown) [Modafinil, 2-(benzhydrylsulfinyl) acetamide] | promotes wakefulness | promotes wakefulness | promotes wakefulness | promotes wakefulness | promotes wakefulness | promotes wakefulness | 
CNCCC(Oc1ccc(C(F)(F)F)cc1)c1ccccc1 (stereo not shown) [fluoxetine] |  |  |  |  |  |  | about 50%
